Laboratory results from patent US10624884B2, “H4 agonist molecule for the treatment of idiopathic pulmonary fibrosis” (H4 ORPHAN PHARMA, priority 2016, dated 2020).

Legend:
[1] = system: bleomycin mouse model of idiopathic pulmonary fibrosis (BL6 mice); assay: Bleomycin mouse model: lung histology, semi-quantitative fibrosis score (Ashcroft score); assay type: in vivo, mice (C57/B16J
Method: (§1) The bleomycin mouse protocol (BLM) was conducted with all of the mice of each group of 10 mice (species: C57/B16J, referred to further on as BL6); these are female mice 8 weeks old.
The analyse of the Fibrosis was conducted with all the animals of each group, respectively. The extent of the fibrosis was analysed biochemically, histologically and cytologically using various quantitative and semi quantitative methods.
All of the mice BL6 are treated according to the protocol hereinbelow. • 5 groups of mice were evaluated.
The treatment with bleomycin (BLM) is done according to the following protocol:
(§2) All of the mice of all of the groups (except group 1) receive bleomycin (BLM) intranasally (3 mg/kg via intranasal instillation) for 5 consecutive days and will be monitored daily and killed at D+29 after BLM instillation in order to study the chronic pulmonary inflammation and the fibrosis. The bleomycin being administered five times at the age of 8 weeks (see diagram 3A).
(§3) The treatment with tritoqualine is done in 2 doses, 20 and 40 mg/kg/day throughout the entire life of the mice. The treatment with tritoqualine starts fourteen days after the first inhalation of the treatment with bleomycin. The treatment is done orally. The groups studied were as follows:
After bronchoalveolar lavage (BAL) and perfusion of the lung, the large lobe was fixed in 4% buffered formaldehyde for standard microscopic analysis (Leica microscope). […] sections were coloured with Masson's trichrome (TM) by using standard techniques, which allow for the evaluation of the fibrosis (TM) as the fibres of collagen are coloured blue and the observation of the extent of the inflammation.
The fibrosis was evaluated by a semi-quantitative score (0-5) (Ashcroft score) with the increase in severity by two independent observers.
The fibrosis with the deposit of collagen located at the alveolar walls and in the peribronchial area and the infiltration of inflammatory cells were evaluated using a semi-quantitative score of 0-5 with an increasing severity by two independent observers.

histamine H4 receptor = histamine H4 receptor (Homo sapiens, UniProt Q9H3N8); conditions: shown in US 2010144718A; cited from earlier work
histidine decarboxylase = biological target: T1, histidine decarboxylase (Homo sapiens, UniProt P19113); conditions: background statement; cited from earlier work
T1 sequence (P19113 1-662): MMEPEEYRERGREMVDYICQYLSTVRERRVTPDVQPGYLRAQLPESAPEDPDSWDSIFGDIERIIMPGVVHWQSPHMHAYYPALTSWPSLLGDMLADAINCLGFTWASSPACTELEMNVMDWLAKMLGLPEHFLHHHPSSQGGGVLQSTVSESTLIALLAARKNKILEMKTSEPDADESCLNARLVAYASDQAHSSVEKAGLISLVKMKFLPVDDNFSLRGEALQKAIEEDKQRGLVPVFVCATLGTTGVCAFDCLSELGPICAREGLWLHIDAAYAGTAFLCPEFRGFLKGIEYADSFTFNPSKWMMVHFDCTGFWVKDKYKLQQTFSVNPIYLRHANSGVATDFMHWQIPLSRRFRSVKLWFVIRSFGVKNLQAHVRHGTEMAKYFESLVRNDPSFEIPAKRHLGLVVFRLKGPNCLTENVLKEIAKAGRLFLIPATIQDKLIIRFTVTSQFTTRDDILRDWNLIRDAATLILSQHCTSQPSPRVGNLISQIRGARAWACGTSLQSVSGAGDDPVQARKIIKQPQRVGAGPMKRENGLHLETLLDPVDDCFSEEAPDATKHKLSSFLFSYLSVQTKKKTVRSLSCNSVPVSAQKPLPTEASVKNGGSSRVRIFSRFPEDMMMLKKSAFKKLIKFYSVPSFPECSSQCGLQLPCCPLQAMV

collagen = assay: Bleomycin mouse model: titration of collagen (hydroxyproline) in lung homogenate; assay type: in vivo, mice (C57/B16J, BL6); conditions: for Collagen (hydroxyproline), mean±standard deviation: BLM mice, n=10, bleomycin group 340.0±4.888
Method: as §1, §2, §3
The collagen content is done after homogenisation of the lung. After bronchoalveolar lavage (BAL), the entire lung was perfused with a saline solution through the right ventricle of the heart in order to empty the vascular content.
The lungs were frozen at −70° C. until they were used. The lung was then homogenised in PBS and centrifuged.
The supernatant was discarded and the lower portion was put back into suspension in 1 ml of PBS containing 0.5% hexadecyltrimethylammonium bromide (HTAB) and 5 mM ethylene-diamine-tetra-acetic acid (EDTA).
After centrifugation, the collagen content was determined by the Sircol assay (France Biochem Division, France), as described by the manufacturer.
The titration of the collagen (method by the dosage of hydroxyproline) is expressed in μg/mg of proteins.

CFU rich in H4 receptor = assay: Proliferation of CFU rich in H4 receptor (FIG. 5); assay type: cell-based; conditions: for Activity on CFU proliferation when an anti H4 is used: with an anti H4
TGFβ = assay: Bleomycin mouse model: measurement of cytokines (TGFβ) in lung homogenate, Luminex assay; assay type: in vivo, mice (C57/B16J, BL6); conditions: BLM mice; P=0.001 for both substances; FIG. 1A
Method: as §1, §2, §3
The interferon gamma and TGFβ levels were measured in a lung homogenate; the concentrations of these different cytokines were determined by a Luminex assay using a MAGPIX (Biorad, France) according to the manufacturer's instructions.

[2] = commercial white powder; degrades in Cotarnine and phthalic acid; cited from earlier work
[3] = system: idiopathic pulmonary fibrosis; conditions: 1,800 mg/d for one year, in addition to corticoids and azathioprine, cited from earlier work
[4] = pirfenidone 100 mg/kg po versus bleomycin

Chain of histamine H4 receptor (Q9H3N8 whole entry, species assumed): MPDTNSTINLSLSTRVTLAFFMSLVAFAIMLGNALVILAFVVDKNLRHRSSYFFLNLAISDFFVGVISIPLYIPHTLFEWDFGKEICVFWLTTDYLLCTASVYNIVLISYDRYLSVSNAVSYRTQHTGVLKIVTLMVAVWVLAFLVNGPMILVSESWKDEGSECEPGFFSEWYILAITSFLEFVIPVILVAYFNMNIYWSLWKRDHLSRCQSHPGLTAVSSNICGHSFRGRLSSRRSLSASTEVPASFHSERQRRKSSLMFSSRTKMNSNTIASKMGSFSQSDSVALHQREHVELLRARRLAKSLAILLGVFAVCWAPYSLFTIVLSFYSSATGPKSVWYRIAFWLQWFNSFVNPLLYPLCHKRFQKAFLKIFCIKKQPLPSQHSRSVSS

CCOc1c(N)c2c(c(OCC)c1OCC)C(C1c3c(cc4c(c3OC)OCO4)CCN1C)OC2=O (centres unmarked) [Tritoqualine, 7-Amino-4,5,6-triethoxy-3-(5,6,7,8-tetrahydo-4-methoxy-6-methyl-1,3-dioxolo[4,5-g]isoquinolin-5-yl) phthalide]
Efficacy on histology versus bleomycin (conclusion) ([1]; tritoqualine 20 mg/kg po, D14 to D28, P<0.0002): very high efficacy | Effect on the histological score ([1]; tritoqualine at the dose of 20 or 40 mg/kg, po): substantially decreases the histological score | Action on the histamine H4 receptor (histamine H4 receptor): very substantial action | Inhibiting activity on histidine decarboxylase (histidine decarboxylase): very low | Collagen (hydroxyproline), mean±standard deviation (collagen; tritoqualine 20 mg/kg po, P<0.0001): 280.0±7.528 μg/mg of proteins | Collagen (hydroxyproline), difference between the two means (treated versus bleomycin) (collagen; tritoqualine 20 mg/kg po versus bleomycin): −60.00±8.975 μg/mg of proteins | Effect on the proliferation of CFU rich in H4 receptor (CFU rich in H4 receptor): able to inhibit the proliferation of CFU | Activity on CFU proliferation when an anti H4 is used (CFU rich in H4 receptor): substantially diminished | Effect on TGFβ in lung homogenate (TGFβ): strongly inhibits | Stability to light [2]: highly sensitive to light

CC(=O)N[C@@H](CS)C(=O)O [N-acetylcysteine]
Average decrease in the decline of the forced vital capacity ([3]; (0.03-0.32)): 0.18 L | Decrease in the decline of the diffusion of CO [3]: 24% | Mortality between the two groups [3]: no difference in mortality | Relative difference in the decline of the forced vital capacity [3]: 9%

NC(=NCc1ccc(Cl)cc1)SCCCc1cnc[nH]1 [Clobenpropit]
Activity on CFU proliferation when an anti H4 is used (CFU rich in H4 receptor): substantially diminished

Cc1ccc(=O)n(-c2ccccc2)c1 [Pirfenidone, pirfenidone]
Histological semi-quantitative score (0-5) (Ashcroft score), mean±standard deviation ([1]; BLM mice, pirfenidone 100 mg/kg po, n=10, bleomycin group 4.2±0.14, P 0.0449): 3.8±0.12 | Histological score, difference between the two means (treated versus bleomycin) [1, 4]: −0.40±0.18 | Collagen (hydroxyproline), mean±standard deviation (collagen; pirfenidone 100 mg/kg po, P 0.0450): 316.5±9.748 μg/mg of proteins | Collagen (hydroxyproline), difference between the two means (treated versus bleomycin) (collagen; [4]): −23.50±10.90 μg/mg of proteins | Effect on TGFβ in lung homogenate (TGFβ): strongly inhibits
